Measurements as given in patent publication US10562848B2, “Inhibitors of TNF superfamily costimulatory interactions and methods for uses of the same” (UNIVERSITY OF MIAMI, priority 2015, dated 2020).
Read-outs that look alike come from different tables or passages of the source.

Columns and labels:
[1] = test system: CD40L-induced MHC-II expression in human THP-1 cells; assay: cells; settings: for IC50: Homo sapiens, THP-1, 48 h, read-out: IC50, inhibition of CD40L-induced THP-1 activation
Procedure: As a further assessment, the ability of the compounds of the disclosure to inhibit the CD40L-induced activation of THP-1 cells, which can serve as surrogate dendritic cells, was evaluated using an assay as described previously (see Margolles-Clark et al, J Mol Med 87:1133-1143 (2009)).
THP-1 human myeloid cells obtained from American Type Culture Collection (ATCC; Manasses, Va.) were cultivated in RPMI media 1640 supplemented with 10% FBS, 100 U/mL penicillin, and streptomycin 100 μg/mL to a density of 1×10^6 cells/mL. Cells were centrifuged and cultured in the same medium without FBS for a period of 24 hours. Starved cells were placed in fresh medium without FBS and stimulated with 0.5 μg/mL of rhCD154 (MegaCD40L; Enzo Life Sciences), in the presence of various concentrations of test compounds. After 48 h, cells were labeled with biotin conjugated monoclonal anti-human CD40 antibody (clone LOB7/6) (LifeSpan BioSciences, Seattle, Wash.), detected with allophycocyanin-eFluor™ 780 streptavidin (eBioscience, San Diego, Calif.), and labeled with monoclonal anti-human HLA-DR antibody APC-Alexa Fluor® 750 (clone LN3) (eBioscience, San Diego, Calif.). All cultivations were carried out for 48 h at 37° C., 90% humidity, and 5% CO2. Stained THP-1 cells were analyzed using a BD LSR II Flow Cytometer (BD Biosciences, San Jose, Calif.). Cell surface markers were quantified in live cells only after gating out 4′,6-diamidino-2-phenylindole (DAPI) labeled cells. All experiments were repeated at least three times.
Data are average±SD in live (DAPI^−) cells from five independent experiments and were analyzed by […] one-way ANOVA followed by Dunnett's multiple comparison test, *p<0.05, **p<0.01, ****p<0.0001 vs. cells+huCD40L.

OX40-OX40L = biological target: T1, OX40-OX40L (Homo sapiens, UniProt P23510+P43489); assay: Cell-free ELISA-type OX40 binding inhibition assay; settings: Table 2
T1 sequence (P43489 29-214 limits assumed): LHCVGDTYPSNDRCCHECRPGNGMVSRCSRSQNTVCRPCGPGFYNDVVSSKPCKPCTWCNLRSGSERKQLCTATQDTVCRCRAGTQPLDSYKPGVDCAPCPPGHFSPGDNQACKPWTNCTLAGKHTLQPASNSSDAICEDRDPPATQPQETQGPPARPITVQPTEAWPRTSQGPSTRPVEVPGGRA
T1 sequence (P23510 51-183 limits assumed): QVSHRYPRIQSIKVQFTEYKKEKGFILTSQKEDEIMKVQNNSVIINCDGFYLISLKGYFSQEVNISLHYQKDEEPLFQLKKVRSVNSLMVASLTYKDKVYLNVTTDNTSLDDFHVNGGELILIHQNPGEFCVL
Procedure: Typical concentrations used were as follows—receptors: 0.3 μg/mL for CD40, TNF-R1, and RANK; 0.6 μg/mL for BAFF-R, OX40, and 4-1BB; and 2 μg/mL for EGF-R-ligands: 0.02 μg/mL for CD40L, TNFα, and RANKL; 0.2 μg/ml for BAFF, OX40L, 4-1BBL; and 0.3 μg/mL for EGF. Assays were done in duplicate or triplicate per plate and repeated at least three times; the averaged data were normalized and used for data fitting and analysis. Binding data were fitted using the standard log inhibitor versus response model in GraphPad Prism to determine the corresponding IC50 values.

[2] = test system: CD40L-induced AID activation in human B cells; assay: Inhibition of CD40L-induced human B-cell function (AID activation, Ds-Red reporter, flow cytometry); format: cell-based; settings: for IC50: Homo sapiens, B-cell; for inhibition of CD40L-induced human B-cell function, AID activation (in words): human B cells, flow cytometry
Procedure: Activities in blocking CD40L-induced effects were assessed in a human B cell functional assay that quantitates B-cell function by measuring AID activation via a downstream fluorescent marker using flow cytometry. Activation-induced cytidine deaminase (AID) is necessary for both class switch recombination (CSR) and somatic hypermutation (SHM) of Ig genes, which are important for the generation of high-affinity antibodies and robust humoral immune response (see Frasca et al., Methods Mol Biol 1343:107-114 (2015)). AID is encoded by the aicda gene that is exclusively expressed in B cells and is necessary for opening the DNA molecule in the switch (S) regions in order to allow CSR. […] To further validate the activity of the present compounds, an aicda-lentiviral construct containing the promoter and enhancer region of aicda fused to the reporter Ds-Red was generated and used to transfect human B cells isolated from healthy donors. In these cells, regulation of AID expression through CD40-CD40L signaling following incubation at different conditions were evaluated by Ds-Red level assessed via flow cytometry.
B cells were isolated using anti-CD19 Microbeads (Miltenyi Biotech) from PBMC collected from healthy donors, and they were purified using magnetic columns. These B cells were than transfected with an aicda-DsRed vector using a lentiviral protocol, 1.25×10^5 cells/mL of transfected B cells were stimulated with IL-4 at 0.2 μg/mL and CD40 ligand at 0.2 μg/mL in IMDM media with 10% FBS. In addition, various concentrations of candidate compounds diluted in the same media were added along with the described condition above. Also, 1 μg/ml of CpG was used as positive control for activation. After culture for 2 days at 37° C. and 5% CO2, B cells were collected, and AID activation level as represented by the level of Ds-Red expression was assessed by flow cytometry using BD LSRFortessa cell analyzer.
These are important results as they were obtained in freshly isolated human B cells, a model particularly relevant for autoimmune diseases, and they assess effects on function not just proliferation or viability.

[3] = test system: Balb/c skin grafts in C57BL/6 mice; assay: Skin allograft survival model; format: in vivo, mouse; settings: CTLA4-Ig plus 21045 30 mg/kg daily s.c. in 20% HPβCD
Source text: Full-thickness ear skins from donor mice (Balb/c, Jackson Laboratory; Bar Harbor, Me.) were transplanted onto the dorsal thorax of recipient mice (C57BL/6, Jackson Laboratory) by placing them on ˜1 cm diameter graft beds and securing with bandages.

[4] = 48 h, read-out: IC50, inhibition of CD40L-induced AID activation

## O=C(Nc1ccc(-c2ccc(C(=O)Nc3cccc4cccc(S(=O)(=O)O)c34)cc2)cc1)c1ccc([N+](=O)[O-])cc1 [Compound 21041, 8-[(4′-[4-nitrobenzamido]biphenyl-4-yl-carbonyl)amino]naphthalene-1-sulfonic acid]
[1]
  IC50: ~10 µM
  inhibition of CD40L-induced MHC-II expression in THP-1 cells (in words): concentration-dependent inhibition
OX40-OX40L
  IC50: 605 µM
[2]; [4]
  IC50: 13.2 µM
[2]; read-out: IC50 B Cell
  IC50: 13.2 µM
[2]
  inhibition of CD40L-induced human B-cell function, AID activation (in words): concentration-dependent inhibition

## COC(=O)c1ccc(C(=O)Nc2ccc(-c3ccc(C(=O)Nc4cccc5cccc(S(=O)(=O)O)c45)cc3)cc2)cc1 [Compound 21045]
[1]
  inhibition of CD40L-induced MHC-II expression in THP-1 cells (in words): concentration-dependent inhibition
OX40-OX40L
  IC50: 135 µM
[3]
  mean survival time (MST) of skin grafts: 15 days
[2]; [4]
  IC50: 4.5 µM
[2]; read-out: IC50 B Cell
  IC50: 4.5 µM
[2]
  inhibition of CD40L-induced human B-cell function, AID activation (in words): concentration-dependent inhibition

## O=C(Nc1ccc(-c2ccc(C(=O)Nc3ccc(C(=O)O)c4ccccc34)cc2)cc1)c1ccc([N+](=O)[O-])cc1 [Compound 25441]
[1]
  IC50: ~10 µM
  inhibition of CD40L-induced MHC-II expression in THP-1 cells (in words): concentration-dependent inhibition
OX40-OX40L
  IC50: 2.7 µM
[2]; [4]
  IC50: 15.9 µM
[2]; read-out: IC50 B Cell
  IC50: 15.9 µM
[2]
  inhibition of CD40L-induced human B-cell function, AID activation (in words): concentration-dependent inhibition
